Source: ChEMBL document CHEMBL2074380, “Pyronaridine, a novel modulator of P-glycoprotein-mediated multidrug resistance in tumor cells in vitro and in vivo” (Biochem Biophys Res Commun, 2004)

Legend:
Format in all cases: functional, cell-based
[1] = target: T1, ATP-dependent translocase ABCB1 (Homo sapiens, UniProt P08183); experiment: TP_TRANSPORTER: increase in Rhodamine 123 intracellular accumulation in K562/A02 cells
[2] = target: T1, ATP-dependent translocase ABCB1; experiment: TP_TRANSPORTER: drug resistance (doxorubicin) in MCF-7/ADR cells; settings: nci/adr-res
[3] = target: T1, ATP-dependent translocase ABCB1; experiment: TP_TRANSPORTER: drug resistance (doxorubicin) in K562/A02 cells

Measured: Activity

T1 sequence (P08183 whole entry): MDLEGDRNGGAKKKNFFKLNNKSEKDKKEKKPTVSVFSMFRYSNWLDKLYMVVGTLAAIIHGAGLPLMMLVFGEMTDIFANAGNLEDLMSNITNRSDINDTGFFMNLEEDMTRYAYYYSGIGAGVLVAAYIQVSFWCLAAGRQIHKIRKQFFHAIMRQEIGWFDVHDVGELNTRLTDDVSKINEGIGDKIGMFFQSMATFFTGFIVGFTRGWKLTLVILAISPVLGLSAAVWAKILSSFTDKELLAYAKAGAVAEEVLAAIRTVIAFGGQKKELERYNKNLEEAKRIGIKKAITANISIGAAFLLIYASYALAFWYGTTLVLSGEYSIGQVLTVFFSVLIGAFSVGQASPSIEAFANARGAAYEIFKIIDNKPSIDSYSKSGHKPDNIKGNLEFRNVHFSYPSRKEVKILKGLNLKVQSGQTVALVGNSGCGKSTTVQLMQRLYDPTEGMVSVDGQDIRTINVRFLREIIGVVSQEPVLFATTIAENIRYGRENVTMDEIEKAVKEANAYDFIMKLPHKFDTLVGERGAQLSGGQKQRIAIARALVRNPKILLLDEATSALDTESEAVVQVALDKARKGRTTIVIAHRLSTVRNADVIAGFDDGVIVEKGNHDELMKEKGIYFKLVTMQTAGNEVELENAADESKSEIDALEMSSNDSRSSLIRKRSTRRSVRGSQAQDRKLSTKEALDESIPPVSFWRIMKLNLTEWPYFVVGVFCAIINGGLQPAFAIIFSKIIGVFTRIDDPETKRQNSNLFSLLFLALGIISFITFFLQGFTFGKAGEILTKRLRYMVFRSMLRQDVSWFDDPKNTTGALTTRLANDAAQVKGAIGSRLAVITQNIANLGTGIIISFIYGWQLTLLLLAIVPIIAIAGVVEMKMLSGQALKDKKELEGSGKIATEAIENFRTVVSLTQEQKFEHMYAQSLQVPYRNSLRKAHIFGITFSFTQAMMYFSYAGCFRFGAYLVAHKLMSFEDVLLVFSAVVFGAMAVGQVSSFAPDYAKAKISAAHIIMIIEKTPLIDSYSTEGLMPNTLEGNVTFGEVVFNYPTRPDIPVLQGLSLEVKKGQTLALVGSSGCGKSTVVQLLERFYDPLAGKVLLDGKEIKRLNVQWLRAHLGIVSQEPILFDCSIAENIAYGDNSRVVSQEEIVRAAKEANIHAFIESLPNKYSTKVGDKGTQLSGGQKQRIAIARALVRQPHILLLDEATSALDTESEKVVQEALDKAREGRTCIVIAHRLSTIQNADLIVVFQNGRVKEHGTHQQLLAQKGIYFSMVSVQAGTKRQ

COc1ccc2nc3cc(Cl)ccc3c(Nc3cc(CN4CCCC4)c(O)c(CN4CCCC4)c3)c2n1 [PYRONARIDINE]
inhibitor [+]: all assays above
